Experimental data published in patent US20100240754A1, “UNSATURATED FATTY AMINO ACID DERIVATIVES AND USE THEREOF IN DERMAL COSMETOLOGY” (Pierre Fabre Demo-Cosmetique, priority 2007, published 2010).

Experiments:
production of PG6KF1α = assay: Production of prostaglandin 6KF1α by keratinocytes stimulated with calcium ionophore A23187 (ELISA); type: cell-based; conditions: for inhibition at 3 µg/mL: Keratinocyte, read-out: Inhibitory activity % of molecules evaluated on the production of PG6KF1α; for effective dose 45 (DE45), production of PG6KF1α: keratinocytes stimulated with A23187; for anti-inflammatory potentialities (PG6KF1α production), in words: summary of Table 1 data
Experimental: The prostaglandin PG6KF1 alpha, is one of the major metabolites produced by the stimulated keratinocyte, and representative of the modulation of the production of metabolites of the metabolism of arachidonic acid stemming from the cyclo-oxygenase route.
The suspension of keratinocytes in DMEM with 10% FCS is distributed in plates of 6 wells (1.2 106 cells/well), and incubated for 16 hours at 37° C. in an atmosphere with 5% CO2. The keratinocytes are then rinsed with PBS in order to eliminate non-adherent cells and then exposed to the products to be tested included in DMEM without FCS (which might interfere in the assay).
(§1) The tested culture concentration is 3 μg/mL. It was retained after a preliminary test for evaluating cytotoxicity (neutral red) and it is not cytotoxic.
For each treatment, 3 wells were produced. The cells were pre-incubated for 60 min with the products to be tested and then an agent stimulating the cascade of arachidonic acid, the calcium ionophore, is added for 5 hours: the calcium ionophore A23187 is used at a concentration of 1 μM.
After these 5 hours of culture, the culture media of each of the wells are recovered, centrifuged at 3,000 rpm and stored at −80° C.
The production of prostaglandin 6KF1α for each of the tests is measured with the Elisa kit EUROMEDEX.
The results are gathered in Table 1 and are expressed in percentage of activity/stimulated control.

production of IL8 = assay: Production of interleukin 8 induced in keratinocytes by PMA and calcium ionophore A23187 (ELISA); type: cell-based; conditions: for Inhibitory activity % of molecules evaluated on the production of IL8 / inhibition at 3 µg/mL: 3 μg/mL, keratinocytes, 60 min pre-incubation, PMA 1 μM + A23187 0.1 μM, 6 hours, percentage of activity/stimulated control; for inhibition at 3 µg/mL: Keratinocyte, read-out: Inhibitory activity % of molecules evaluated on the production of IL8; for anti-inflammatory potentialities (IL8 production), in words: summary of Table 2 data
Experimental: In this study conducted on 96-well plates, we evaluated the activity of amino-alkene acids, on the production of interleukin 8 induced at the keratinocyte by the phorbol ester PMA and the calcium ionophore A23187.
The suspension of keratinocytes in supplemented KSFM is distributed into plates of 96 wells (3.10^4 cells/well), and incubated for 16 hours at 37° C. in an atmosphere with 5% CO2. The keratinocytes are then rinsed with PBS in order to remove the non-adherent cells and then exposed to the products to be tested included in non-supplemented KSFM (which might interfere in the assay).
as §1
For each treatment, 3 wells are produced. The cells are pre-incubated for 60 min with the products to be tested and then stimulated, in parallel with negative controls without any stimulant: Phorbol Myristate Acetate (PMA) 1 μM+calcium Ionophore (A23187) 0.1 μM.
Incubation for 6 hours at 37° C. in a humid air atmosphere containing 5% of CO2.
The culture media of each of the wells are recovered, centrifuged at 3,000 rpm and stored at −80° C.
Assay of the cytokines: IL8 is assayed by an immunoenzymatic method with an ELISA kit (Immunotech).
The results are gathered in Table 2 and are expressed in percentage of activity/stimulated control.

[1] = test system: fibroblast cell line L929; assay: In vitro assay of intracellular OASes (H2DCF-DA probe) after H2O2/iron oxidative stress; type: cell-based, murine; conditions: Mus musculus, L929, 3 h pretreatment, H2O2 200 μM / iron 2 mM, read-out: percentage of inhibition of intracellular OAS production (protection); for inhibition at 20 pg/mL: dose 0.02 ng/mL; for inhibition at 0.0002 µg/mL: dose 0.2 ng/mL; for inhibition at 0.002 µg/mL: dose 2 ng/mL; for inhibition at 0.02 µg/mL: dose 20 ng/mL
Text: We have set up a model for an in vitro study of oxidative stress induced by H2O2/iron, H2O2 which massively generates intracellular OASes by a chain reaction triggered by the oxidation of membrane lipids.
This technique is based on the use of a fluorescent probe, 6-carboxy-2′, 7′ dichlorodihydrofluorescein diacetate, di(acetoxymethyl ester) (H2DCF-DA), which, once it has penetrated the cell, is deacetylated by the intracellular esterases then forming H2DCF. This product is oxidized by intracellular OASes into a highly fluorescent compound: 2′,7′-dichlorofluorescein, (DCF) (Suematsu M et al, 1996, Free Radicals Practical Approach, Punchard ed. P83-99).
Cutaneous murine fibroblast cell line L929.
The tested concentrations are non-cytotoxic concentrations. Cytoxicity was evaluated by the neutral red method, after incubation of the product for 3 hours.
The reference anti-radical product is vitamin E or α-tocopherol (MW: 430.7) (SIGMA, ref.: T-1539).
The mother solution is prepared at 400 mg/mL in DMSO and stored at −20° C. The pretreatment solution is prepared extemporaneously at 400 μg/mL in a culture medium without FCS.
For evaluating unsaturated fatty amino acid derivatives, the dilutions are prepared in the culture medium extemporaneously for a range of concentrations of 0.02, 0.2, 2 and 20 ng/mL.
The cells of the fibroblast line L929 are sown in microplates with 96 wells with a flat bottom in 100 μL of DMEM supplemented with 10% of FCS, and they are then incubated overnight at 37° C. in a humid atmosphere with 5% CO2.
The dilutions of the products to be tested and of the reference molecule are conducted in culture mediums without FCS, and then deposited in 7 wells in an amount of 100 μL per well.
The cells are then incubated for 3 hours at 37° C. in a humid atmosphere with 5% CO2.
The cells are rinsed with PBS 1× in an amount of 100 μL per well. Next they are set to incubate for 30 min at 37° C. in a humid atmosphere with 5% CO2 and with 50 μL of H2DCF-DA probe at 5 μM.
After 30 min in contact with the probe alone, the cells are incubated for 30 min at 37° C. in a humid atmosphere with […] with addition of 25 μL of H2O2 at 800 μM and 25 μL of 8 mM ferrous and ferric iron solution, in order to have final concentrations of 200 μM of H2O2 and 2 mM of ferrous and ferric iron.
The cells are then rinsed with PBS 1× in an amount of 100 μL per well, and then incubated for 30 min at 37° C. in a humid atmosphere with 5% CO2 and with 100 μL of PBS 1×.
These 1 h 30 minutes of incubation at 37° C. allow the intracellular esterases to deacetylate the H2DCF probe, oxidizable by intracellular OASes into DCF; a fluorescent compound, the formation of which is proportional to the amount of intracellular OASes.
The fluorescence intensity is read with the cytofluorimeter at λexcitation=485 nm and λemission=530 nm. It reflects the amount of produced intracellular OASes.
With the below ratio, it is possible to calculate for each concentration of tested product the % of protection against production of intracellular OASes (since the fluorescence intensity or FI expresses intracellular release of OASes).
The values indicated in Table 3 are percentages of inhibition of intracellular OAS production following an exogenous oxidative stress, relatively to <> cells (100%) and to <> cells (0%).

[2] = 3 μg/mL, keratinocytes, 60 min pre-incubation, calcium ionophore A23187 1 μM for 5 hours, percentage of activity/stimulated control

SMILES: Cl.NCCC/C=C/C(=O)O [Compound No. 1, (E)-6-amino-hex-2-enoic acid]
- inhibition at 3 µg/mL (production of PG6KF1α; [2]): < 0%
- Inhibitory activity % of molecules evaluated on the production of IL8 (production of IL8): ~
- inhibition at 20 pg/mL [1]: 12%
- inhibition at 0.0002 µg/mL [1]: 13%
- inhibition at 0.002 µg/mL [1]: 5%
- inhibition at 0.02 µg/mL [1]: 1%

SMILES: NCCC/C=C(/F)C(=O)O [Compound No. 2, (E)-6-amino-2-fluoro-hex-2-enoic acid]
- Inhibitory activity % of molecules evaluated on the production of PG6KF1α (production of PG6KF1α; [2]): ~
- Inhibitory activity % of molecules evaluated on the production of IL8 (production of IL8): ~
- inhibition at 20 pg/mL [1]: 14%
- inhibition at 0.0002 µg/mL [1]: 19%
- inhibition at 0.002 µg/mL [1]: 14%
- inhibition at 0.02 µg/mL [1]: -13%

SMILES: Cl.NCCCC/C=C/C(=O)O [Compound No. 4, (E)-7-amino-hept-2-enoic acid]
- inhibition at 3 µg/mL (production of PG6KF1α; [2]): 18%
- Inhibitory activity % of molecules evaluated on the production of IL8 (production of IL8): ~
- inhibition at 20 pg/mL [1]: 13%
- inhibition at 0.0002 µg/mL [1]: 12%
- inhibition at 0.002 µg/mL [1]: 8%
- inhibition at 0.02 µg/mL [1]: -14%

SMILES: NCCCCC=C(F)C(=O)O [Compound No. 5, (Z+E)-7-amino-2-fluoro-hept-2-enoic acid]
- inhibition at 3 µg/mL (production of PG6KF1α; [2]): 41%
- effective dose 45 (DE45), production of PG6KF1α (production of PG6KF1α): 25 µg/mL
- anti-inflammatory potentialities (PG6KF1α production), in words (production of PG6KF1α): anti-inflammatory potentialities
- inhibition at 3 µg/mL (production of IL8): < 0%
- inhibition at 20 pg/mL [1]: 18%
- inhibition at 0.0002 µg/mL [1]: 23%
- inhibition at 0.002 µg/mL [1]: 26%
- inhibition at 0.02 µg/mL [1]: 23%

SMILES: Cl.NCCCCC/C=C/C(=O)O [Compound No. 7, (E)-8-amino-oct-2-enoic acid]
- inhibition at 3 µg/mL (production of PG6KF1α; [2]): 36%
- anti-inflammatory potentialities (PG6KF1α production), in words (production of PG6KF1α): anti-inflammatory potentialities
- Inhibitory activity % of molecules evaluated on the production of IL8 (production of IL8): ~
- inhibition at 20 pg/mL [1]: 31%
- inhibition at 0.0002 µg/mL [1]: 33%
- inhibition at 0.002 µg/mL [1]: 26%
- inhibition at 0.02 µg/mL [1]: 32%

SMILES: Cl.NCCCCCC/C=C/C(=O)O [Compound No. 8, (E)-9-amino-non-2-enoic acid]
- inhibition at 3 µg/mL (production of PG6KF1α; [2]): 8%
- inhibition at 3 µg/mL (production of IL8): 14%
- inhibition at 20 pg/mL [1]: 22%
- inhibition at 0.0002 µg/mL [1]: 25%
- inhibition at 0.002 µg/mL [1]: 20%
- inhibition at 0.02 µg/mL [1]: 19%

SMILES: Cl.NCCCCCCC=C(F)C(=O)O [Compound No. 9, 9-amino-2-fluoro-non-2-enoic acid]
- inhibition at 3 µg/mL (production of PG6KF1α; [2]): 17%
- inhibition at 3 µg/mL (production of IL8): 20%
- anti-inflammatory potentialities (IL8 production), in words (production of IL8): anti-inflammatory potentialities
- inhibition at 20 pg/mL [1]: 18%
- inhibition at 0.0002 µg/mL [1]: 20%
- inhibition at 0.002 µg/mL [1]: 23%
- inhibition at 0.02 µg/mL [1]: 18%

SMILES: Cl.NCCCCCCCCCCCC=C(F)C(=O)O [Compound No. 10, 14-amino-2-fluoro-tetradec-2-enoic acid]
- inhibition at 3 µg/mL (production of PG6KF1α; [2]): 38%
- anti-inflammatory potentialities (PG6KF1α production), in words (production of PG6KF1α): anti-inflammatory potentialities
- inhibition at 3 µg/mL (production of IL8): 8%
- inhibition at 20 pg/mL [1]: 20%
- inhibition at 0.0002 µg/mL [1]: 25%
- inhibition at 0.002 µg/mL [1]: 18%
- inhibition at 0.02 µg/mL [1]: 15%

SMILES: Cl.NCCCCCCCCCCC/C=C/C(=O)O [Compound No. 11, (E)-14-amino-tetradec-2-enoic acid]
- inhibition at 3 µg/mL (production of PG6KF1α; [2]): 40%
- effective dose 45 (DE45), production of PG6KF1α (production of PG6KF1α): 10 µg/mL
- anti-inflammatory potentialities (PG6KF1α production), in words (production of PG6KF1α): anti-inflammatory potentialities
- inhibition at 3 µg/mL (production of IL8): 22%
- anti-inflammatory potentialities (IL8 production), in words (production of IL8): anti-inflammatory potentialities
- inhibition at 20 pg/mL [1]: 20%
- inhibition at 0.0002 µg/mL [1]: 19%
- inhibition at 0.002 µg/mL [1]: 22%
- inhibition at 0.02 µg/mL [1]: 19%

SMILES: NCCC/C=C(\F)C(=O)O [compound 3, (Z)-6-amino-2-fluoro-hex-2-enoic acid]
- inhibition at 3 µg/mL (production of PG6KF1α; [2]): 22%
- Inhibitory activity % of molecules evaluated on the production of IL8 (production of IL8): ~
- inhibition at 20 pg/mL [1]: 15%
- inhibition at 0.0002 µg/mL [1]: 11%
- inhibition at 0.002 µg/mL [1]: 5%
- inhibition at 0.02 µg/mL [1]: 1%

SMILES: NCCCC/C=C(\F)C(=O)O [compound 6, (Z)-7-amino-2-fluoro-hept-2-enoic acid]
- inhibition at 3 µg/mL (production of PG6KF1α; [2]): 25%
- inhibition at 3 µg/mL (production of IL8): < 0%
- inhibition at 20 pg/mL [1]: 31%
- inhibition at 0.0002 µg/mL [1]: 30%
- inhibition at 0.002 µg/mL [1]: 21%
- inhibition at 0.02 µg/mL [1]: 26%
